For test [1], the target named is T1, Beta2 (Homo sapiens, UniProt P07550).
T1 construct: purchased NIMH Psychoactive Drug Screening Program (PDSP)
Put plainly: PDSP primary binding Beta2. The note with it: 1.5 h; primary binding, 10,000 nM; last figure of the line = mean of the 4 before it; read-out: Beta2, PDSP raw data, mean. Here is the method: (§1) To determine if any off-target receptor-binding effects are present, all the novel ligands were sent to the National Institute of Mental Health (NIMH), Psychoactive Drug Screening Program (PDSP). The ligands were screened over a panel of 47 receptors, ion channels, and transporters to determine any other possible interactions with […]. The hERG-binding was also determined. […] No binding of the test compounds to calcium channels was observed. […] It is necessary to screen the compounds for hERG-binding during the early process of drug discovery. The unintentional binding of many drugs to hERG can cause blockade of hERG K+ channels in the heart, which can cause many side effects including cardiac arrhythmias and sudden death. […] All of the α5 imidazodiazepines were tested for hERG-binding.
(§2) The NIMH PDSP assay protocol book [https://kidbdev.med.unc.edu/databases/PDSP%20Protocols%20II%202013-03-28.pdf accessed on 23 April 2023]. describes the protocols for primary and secondary radio-ligand binding assays. These assays were carried out in a final volume of 125 µL per well in the appropriate binding buffer.
(§3) The binding of a ligand to a receptor, ion channel, or transporter was determined in the […] of 10 µM of the appropriate reference compound. […] Plates were incubated in the dark for 90 min at rt, and the reactions were stopped by vacuum filtration onto 0.3% polyethyleneimine (PEI) soaked 96-well filter mats using a 96-well Filtermateharvester. This was followed by three washes with cold PBS buffer. Radioactivity was then counted on a Microbeta counter. Nonlinear regression was used to analyze the data with N = 6 replicates.

Test [2] addresses kappa opioid receptors (KOR) (Homo sapiens, UniProt P41145). Description: PDSP radioligand binding at KOR. The note with it: for inhibition at 10 µM: 1.5 h.
Description: Opioid receptors are a family of inhibitory G-coupled protein receptors where opioids act as the ligand. The kappa opioid receptors (KOR), µ and δ opioid receptors (MOR and DOR), and nociception opioid receptor (NOP) fall under the family of opioids receptors. It has been reported that oxadiazole imidazodiazepines can mediate analgesic and anti-inflammatory properties mediated also by the κ opioid receptor (KOR). The binding at KOR is usually silent. The affinities of the test compounds for KOR, DOR, and MOR were determined using radioligand binding assays at a screening concentration of 10,000 nM in collaboration with the National Institute of Mental Health’s Psychoactive Drug Screening Program (PDSP), as mentioned before. Concentration-dependent experiments were conducted to determine Ki values for the compounds that exceeded more than 50% radioligand displacement in primary binding assays.
as §2, §3

Test [3] has as its target T2, Beta3 (Homo sapiens, UniProt P13945).
T2 construct: purchased NIMH Psychoactive Drug Screening Program (PDSP)
Put plainly: PDSP primary binding Beta3. As to conditions: 1.5 h; primary binding, 10,000 nM; last figure of the line = mean of the 4 before it; read-out: Beta3, PDSP raw data, mean. Here is the method:
as §1, §2, §3

For test [4], the target named is T3, Alpha2B (Homo sapiens, UniProt P18089).
T3 construct: purchased NIMH Psychoactive Drug Screening Program (PDSP)
T3 sequence (P18089 1-450): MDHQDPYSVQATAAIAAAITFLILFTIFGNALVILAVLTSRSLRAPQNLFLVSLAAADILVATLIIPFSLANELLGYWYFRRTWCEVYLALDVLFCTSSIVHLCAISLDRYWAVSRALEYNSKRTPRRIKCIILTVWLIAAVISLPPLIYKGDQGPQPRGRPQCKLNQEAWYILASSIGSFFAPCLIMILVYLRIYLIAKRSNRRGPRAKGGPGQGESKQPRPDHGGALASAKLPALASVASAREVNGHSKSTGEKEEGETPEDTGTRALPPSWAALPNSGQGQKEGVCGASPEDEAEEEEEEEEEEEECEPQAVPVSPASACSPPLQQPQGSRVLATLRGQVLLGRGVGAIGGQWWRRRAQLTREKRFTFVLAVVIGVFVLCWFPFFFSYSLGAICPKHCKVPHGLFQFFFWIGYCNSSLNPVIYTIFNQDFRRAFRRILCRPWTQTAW
Description: PDSP primary binding Alpha2B. The note with it: 1.5 h; primary binding, 10,000 nM; last figure of the line = mean of the 4 before it; read-out: Alpha2B, PDSP raw data, mean. Here is the method:
as §1, §2, §3

Test [5] has as its target T4, 5-HT5A (Homo sapiens, UniProt P47898).
T4 construct: purchased NIMH Psychoactive Drug Screening Program (PDSP)
Put plainly: PDSP primary binding 5-HT5A. The note with it: 1.5 h; primary binding, 10,000 nM; last figure of the line = mean of the 4 before it; read-out: 5-HT5A, PDSP raw data, mean. As for the experimental part:
as §1, §2, §3

Test [6] has as its target T5, D1 (Homo sapiens, UniProt P21728).
T5 construct: purchased NIMH Psychoactive Drug Screening Program (PDSP)
Put plainly: PDSP primary binding D1. As to conditions: 1.5 h; primary binding, 10,000 nM; last figure of the line = mean of the 4 before it; read-out: D1, PDSP raw data, mean. As for the experimental part: as §1, §2, §3

Test [7] has as its target T6, 5-HT4 (Homo sapiens, UniProt Q13639).
T6 construct: purchased NIMH Psychoactive Drug Screening Program (PDSP)
Put plainly: PDSP primary binding 5-HT4. The note with it: 1.5 h; primary binding, 10,000 nM; last figure of the line = mean of the 4 before it; read-out: 5-HT4, PDSP raw data, mean. Here is the method: as §1, §2, §3

Test [8] concerns the target T7, H3 (Homo sapiens, UniProt Q9Y5N1).
T7 construct: purchased NIMH Psychoactive Drug Screening Program (PDSP)
Description: PDSP primary binding H3. As to conditions: primary binding, 10,000 nM; last figure of the line = mean of the 4 before it; read-out: H3, PDSP raw data, mean. Here is the method: as §1, §2, §3

The target of test [9] is T8, A1 (Homo sapiens, UniProt P30542).
T8 construct: purchased NIMH Psychoactive Drug Screening Program (PDSP)
T8 sequence (P30542 1-326): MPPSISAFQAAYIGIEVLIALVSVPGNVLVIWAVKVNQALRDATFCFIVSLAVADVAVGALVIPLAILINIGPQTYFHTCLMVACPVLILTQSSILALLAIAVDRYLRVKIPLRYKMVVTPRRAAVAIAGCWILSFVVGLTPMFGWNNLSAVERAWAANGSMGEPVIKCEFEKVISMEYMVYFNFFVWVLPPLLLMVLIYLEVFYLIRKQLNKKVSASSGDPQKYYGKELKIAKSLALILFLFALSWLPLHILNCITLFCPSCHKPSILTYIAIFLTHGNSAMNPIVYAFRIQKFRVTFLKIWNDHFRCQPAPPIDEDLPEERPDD
Put plainly: PDSP primary binding A1. The note with it: 1.5 h; primary binding, 10,000 nM; last figure of the line = mean of the 4 before it; read-out: A1, PDSP raw data, mean. Here is the method: as §1, §2, §3

The subject of test [10] is NR2B. Put plainly: PDSP primary binding NR2B. The note with it: primary binding, 10,000 nM; last figure of the line = mean of the 4 before it. Here is the method:
as §1, §2, §3

Test [11] addresses T9, Beta1 (Homo sapiens, UniProt P08588).
T9 construct: purchased NIMH Psychoactive Drug Screening Program (PDSP)
Description: PDSP primary binding Beta1. As to conditions: 1.5 h; primary binding, 10,000 nM; last figure of the line = mean of the 4 before it; read-out: Beta1, PDSP raw data, mean. As for the experimental part: as §1, §2, §3

Setting [12] is: at 10,000 nM, N = 5, [3H]-U69593 0.83 nM, read-out: Primary Binding %KOR.
Where [13] appears, read: primary binding, 10,000 nM, last figure of the line = mean of the 4 before it, read-out: KOR, PDSP raw data, mean.

The record followed here is article PMC10303271, “Synthesis and Receptor Binding Studies of α5 GABAAR Selective Novel Imidazodiazepines Targeted for Psychiatric and Cognitive Disorders” (Molecules, 2023).

The Ki is a measure of affinity in units of concentration, obtained from inhibition or displacement. The low end stands for a stronger hold on the target, the high end for a looser hold on the target.

Where two headings read alike, the source gives them in different places.

Sequence of kappa opioid receptors (KOR) (P41145 whole entry): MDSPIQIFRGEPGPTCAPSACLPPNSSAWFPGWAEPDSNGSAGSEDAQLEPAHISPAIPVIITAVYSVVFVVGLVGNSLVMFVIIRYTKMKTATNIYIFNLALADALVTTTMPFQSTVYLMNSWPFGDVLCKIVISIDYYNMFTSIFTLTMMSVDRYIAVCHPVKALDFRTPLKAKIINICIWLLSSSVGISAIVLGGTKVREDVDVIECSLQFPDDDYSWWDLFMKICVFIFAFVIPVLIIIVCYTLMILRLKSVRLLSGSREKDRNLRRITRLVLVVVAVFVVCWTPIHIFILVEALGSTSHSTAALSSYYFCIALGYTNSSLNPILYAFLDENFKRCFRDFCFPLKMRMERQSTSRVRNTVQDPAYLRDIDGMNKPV
T2 sequence (P13945 whole entry): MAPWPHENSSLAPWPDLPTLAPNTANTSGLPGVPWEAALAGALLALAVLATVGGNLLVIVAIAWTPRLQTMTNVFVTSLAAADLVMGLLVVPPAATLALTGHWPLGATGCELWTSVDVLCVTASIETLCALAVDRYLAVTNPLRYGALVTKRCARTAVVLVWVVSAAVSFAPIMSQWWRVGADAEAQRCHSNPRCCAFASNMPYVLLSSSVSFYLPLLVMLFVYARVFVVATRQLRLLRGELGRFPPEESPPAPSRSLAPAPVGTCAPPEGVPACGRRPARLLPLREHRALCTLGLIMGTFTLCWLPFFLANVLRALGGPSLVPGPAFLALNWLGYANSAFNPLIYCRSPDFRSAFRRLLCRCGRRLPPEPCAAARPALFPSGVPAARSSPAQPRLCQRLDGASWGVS
T1 sequence (P07550 whole entry): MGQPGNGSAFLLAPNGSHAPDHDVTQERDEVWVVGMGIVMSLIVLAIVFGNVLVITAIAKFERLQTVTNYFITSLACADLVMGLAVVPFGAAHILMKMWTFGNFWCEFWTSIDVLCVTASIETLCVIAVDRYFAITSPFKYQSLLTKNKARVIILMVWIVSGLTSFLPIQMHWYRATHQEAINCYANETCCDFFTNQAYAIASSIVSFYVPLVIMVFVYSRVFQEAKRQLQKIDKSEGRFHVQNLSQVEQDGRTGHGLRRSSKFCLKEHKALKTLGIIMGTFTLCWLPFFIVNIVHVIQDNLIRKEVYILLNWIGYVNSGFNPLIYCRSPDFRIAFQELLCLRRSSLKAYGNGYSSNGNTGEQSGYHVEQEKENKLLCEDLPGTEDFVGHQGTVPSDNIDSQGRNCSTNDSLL
T9 sequence (P08588 whole entry): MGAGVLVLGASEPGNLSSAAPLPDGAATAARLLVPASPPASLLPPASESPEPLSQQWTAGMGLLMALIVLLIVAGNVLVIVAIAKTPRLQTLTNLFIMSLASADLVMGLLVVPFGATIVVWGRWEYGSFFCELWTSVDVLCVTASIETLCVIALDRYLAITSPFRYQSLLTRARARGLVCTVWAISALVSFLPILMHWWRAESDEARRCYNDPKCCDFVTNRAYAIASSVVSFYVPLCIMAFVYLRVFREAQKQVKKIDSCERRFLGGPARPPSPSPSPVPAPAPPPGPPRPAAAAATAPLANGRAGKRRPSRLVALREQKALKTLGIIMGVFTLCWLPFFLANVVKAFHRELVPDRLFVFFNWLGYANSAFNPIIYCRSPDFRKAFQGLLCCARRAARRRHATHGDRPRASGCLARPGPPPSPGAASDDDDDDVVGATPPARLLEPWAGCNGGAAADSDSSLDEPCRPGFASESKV
T5 sequence (P21728 whole entry): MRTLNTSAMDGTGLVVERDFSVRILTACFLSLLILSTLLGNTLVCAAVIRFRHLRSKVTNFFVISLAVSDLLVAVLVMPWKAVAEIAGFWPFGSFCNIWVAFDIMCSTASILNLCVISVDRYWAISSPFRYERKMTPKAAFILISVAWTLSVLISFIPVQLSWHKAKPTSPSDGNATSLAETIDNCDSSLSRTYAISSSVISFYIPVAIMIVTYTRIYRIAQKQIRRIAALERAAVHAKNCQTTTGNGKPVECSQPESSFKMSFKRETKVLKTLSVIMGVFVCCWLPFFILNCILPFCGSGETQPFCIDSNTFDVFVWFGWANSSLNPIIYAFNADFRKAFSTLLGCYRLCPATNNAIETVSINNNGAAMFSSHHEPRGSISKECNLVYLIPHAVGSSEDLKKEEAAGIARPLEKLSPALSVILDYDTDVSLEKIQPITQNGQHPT
T7 sequence (Q9Y5N1 whole entry): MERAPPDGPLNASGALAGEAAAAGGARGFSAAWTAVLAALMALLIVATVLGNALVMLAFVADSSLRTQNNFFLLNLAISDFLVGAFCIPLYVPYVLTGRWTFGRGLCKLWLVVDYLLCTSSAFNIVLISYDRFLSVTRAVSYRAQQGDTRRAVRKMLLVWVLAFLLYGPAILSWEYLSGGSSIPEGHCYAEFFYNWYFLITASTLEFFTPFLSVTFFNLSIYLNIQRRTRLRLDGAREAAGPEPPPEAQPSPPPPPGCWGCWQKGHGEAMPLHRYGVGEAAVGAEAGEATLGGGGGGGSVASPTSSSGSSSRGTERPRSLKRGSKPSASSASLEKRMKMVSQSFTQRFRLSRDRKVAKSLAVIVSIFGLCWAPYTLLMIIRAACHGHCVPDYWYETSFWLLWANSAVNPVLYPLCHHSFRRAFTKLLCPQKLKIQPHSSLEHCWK
T4 sequence (P47898 whole entry): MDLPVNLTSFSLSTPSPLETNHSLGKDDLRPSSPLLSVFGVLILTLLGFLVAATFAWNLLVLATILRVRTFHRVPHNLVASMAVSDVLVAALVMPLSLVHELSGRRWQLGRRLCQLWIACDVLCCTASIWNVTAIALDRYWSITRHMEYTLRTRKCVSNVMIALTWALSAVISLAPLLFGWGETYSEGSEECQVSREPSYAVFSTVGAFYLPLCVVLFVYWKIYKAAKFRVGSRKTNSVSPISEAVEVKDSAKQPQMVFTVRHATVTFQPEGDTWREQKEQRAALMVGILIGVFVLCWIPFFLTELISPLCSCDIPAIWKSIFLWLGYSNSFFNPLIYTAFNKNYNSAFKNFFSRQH
T6 sequence (Q13639 whole entry): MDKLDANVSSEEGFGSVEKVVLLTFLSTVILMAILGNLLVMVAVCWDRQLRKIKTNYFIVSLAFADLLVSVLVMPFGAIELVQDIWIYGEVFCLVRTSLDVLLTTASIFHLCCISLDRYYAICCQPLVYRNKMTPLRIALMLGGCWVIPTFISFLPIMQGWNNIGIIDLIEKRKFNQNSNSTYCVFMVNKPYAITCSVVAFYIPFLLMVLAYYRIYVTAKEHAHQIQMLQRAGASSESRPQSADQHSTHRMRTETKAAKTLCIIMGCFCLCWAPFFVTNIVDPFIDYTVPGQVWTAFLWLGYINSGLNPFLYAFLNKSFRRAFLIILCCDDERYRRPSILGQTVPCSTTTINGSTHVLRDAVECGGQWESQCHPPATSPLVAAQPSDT

For `C#Cc1ccc2c(c1)C(c1ccccc1F)=N[C@H](C)c1c(C(=S)N(C)C)ncn1-2` [Compound 33, (R)-8-Ethynyl-6-(2′-fluorophenyl)-N,N,4-trimethyl-4H-benzo[f]imidazo[1,5-a][1,4]diazepine-3-carbothioamide], the inhibition at 10 µM was -0.87% in test [1]; 53.6 ± 7.24% in test [2] (setting [12]); 53.6% in test [2] (setting [13]); -19.4% in [3]; 68.9% in [4]; 53.6% in test [5]. Further, the inhibition at 10 µM in test [6] is -35.4%; in test [7], -14.4%; in test [8], 5.94%; in test [9], 25.9%; in test [11], -15.8%. The Ki in test [2] worked out at 400 ± 82 nM. Further, the “NR2B, PDSP raw data, mean” value in [10] is 3.79%.
As for `CCc1noc(-c2ncn3c2[C@@H](C)N=C(c2ccccc2F)c2cc(-c4ccccc4)ccc2-3)n1` [Compound 35, (R)-3-Ethyl-5-(6-(2′-fluorophenyl)-4-methyl-8-phenyl-4H-benzo[f]imidazo[1,5-a][1,4]diazepin-3-yl)-1,2,4-oxadiazole], the inhibition at 10 µM amounted to 0.34% in [1]; 38 ± 1.73% in [2] (setting [12]); 38% in test [2] (setting [13]); 27.9% in test [3]; 45.7% in [4]; 19.5% in test [5]. In addition, the inhibition at 10 µM was 29.2% in test [6]; -0.48% in test [7]; 4.89% in test [8]; 27.1% in test [9]; 0.99% in [11]. In addition, in test [10], the “NR2B, PDSP raw data, mean” value is listed as 24.81%.
Regarding `CCc1noc(-c2ncn3c2[C@@H](C)N=C(c2ccccc2F)c2cc(Cl)ccc2-3)n1` [Compound 36, (R)-5-(8-Chloro-6-(2′-fluorophenyl)-4-methyl-4H-benzo[f]imidazo[1,5-a][1,4]diazepin-3-yl)-3-ethyl-1,2,4-oxadiazole], the inhibition at 10 µM in test [1] is 2.67%; in [2] (setting [12]), 96.4 ± 3%; in test [2] (setting [13]) it was 96.4%; in [3] it was 1.76%; in [4] it was 16.6%; in test [5], -1.84%. The inhibition at 10 µM in test [6] is 42.8%; in test [7], -12.3%; in test [8], -0.81%; in test [9], 67.9%; in test [11], -14.7%. In [2], this molecule came in with a Ki of 104 ± 7.58 nM. Moreover, the “NR2B, PDSP raw data, mean” value in test [10] is recorded as 14.42%.
For the molecule `CC(C)c1noc(-c2ncn3c2[C@@H](C)N=C(c2ccccc2F)c2cc(Cl)ccc2-3)n1` [Compound 37, (R)-5-(8-Chloro-6-(2′-fluorophenyl)-4-methyl-4H-benzo[f]imidazo[1,5-a][1,4]diazepin-3-yl)-3-isopropyl-1,2,4-oxadiazole], the inhibition at 10 µM was 6.55% in [1]; 99.2 ± 1.75% in test [2] (setting [12]); 99.2% in test [2] (setting [13]); 46% in test [3]; 18.5% in [4]; -2.71% in test [5]. Besides, the inhibition at 10 µM in test [6] was found to be 27.4%; in test [7], 48%; in test [8], 6.42%; in test [9], 52.2%; in test [11], 8.14%. The Ki in test [2] came to 46.3 ± 4.93 nM. The “NR2B, PDSP raw data, mean” value in test [10] is reported as 34.46%.
With `C[C@H]1N=C(c2ccccc2F)c2cc(Cl)ccc2-n2cnc(-c3nc(C4CC4)no3)c21` [Compound 38, (R)-5-(8-Chloro-6-(2′-fluorophenyl)-4-methyl-4H-benzo[f]imidazo[1,5-a][1,4]diazepin-3-yl)-3-cyclopropyl-1,2,4-oxadiazole], the inhibition at 10 µM in [1] was 1.75%; in [2] (setting [12]) it was 98.9 ± 1.6%; in test [2] (setting [13]) it was 98.9%; in [3], 24.2%; in test [4] it was 17.6%; in [5], -2.84%. In addition, the inhibition at 10 µM came to 43% in test [6]; 38.7% in [7]; 3.21% in test [8]; 55.5% in [9]; 9.95% in test [11]. Further, in test [2], the Ki was found to be 82.2 ± 2.43 nM. The “NR2B, PDSP raw data, mean” value in [10] was 31.49%.
In the case of `CCc1noc(-c2ncn3c2CN=C(c2ccccc2F)c2cc(C4CC4)ccc2-3)n1` [Compound 44, 5-(8-Cyclopropyl-6-(2′-fluorophenyl)-4H-benzo[f]imidazo[1,5-a][1,4]diazepin-3-yl)-3-ethyl-1,2,4-oxadiazole], the inhibition at 10 µM was 3.97% in test [1]; 96.3 ± 2.29% in test [2] (setting [12]); 96.3% in [2] (setting [13]); -4.01% in test [3]; 36.6% in [4]; 5.08% in [5]. In addition, the inhibition at 10 µM in test [6] is 49.6%; in test [7], -9.26%; in [8] it was 7.26%; in test [9], 48.2%; in test [11], -5.19%. Also, the affinity in test [2] corresponds to a Ki of 207 ± 33.1 nM. In test [10], the “NR2B, PDSP raw data, mean” value was found to be 21.74%.
